From US6579878B1, “Pharmaceutical compositions and methods for use” (priority 2000, dated 2003)

Key:
[1] = target: muscle-type nicotinic acetylcholine receptors (Homo sapiens, UniProt P02708+P07510+Q07001); test: Determination of interaction with muscle receptors; assay type: cell-based; conditions: percentage of the maximal activation induced by (S)-(-)-nicotine
Experimental: (§1) The determination of the interaction of the compounds with muscle receptors was carried out in accordance with the techniques described in U.S. Pat. No. 5,597,919 to Dull et al. The maximal activation for individual compounds (Emax) was determined as a percentage of the maximal activation induced by (S)-(−)-nicotine. Reported Emax values represent the amount released relative to (S)-(−)-nicotine on a percentage basis. […] Such preferable compounds have the capability to activate human CNS receptors without activating muscle-type nicotinic acetylcholine receptors. Thus, there is provided a therapeutic window for utilization in the treatment of CNS disorders.

Rat brain synaptosomes = test: Neurotransmitter release from brain synaptosomes; assay type: biochemical; conditions: in the presence of 10 uM ligand; percentage of release obtained with 10 uM (S)-(-)-nicotine or 300 uM TMA
Experimental: Neurotransmitter release was measured using techniques similar to those previously published (Bencherif M, et al.: JPET 279: 1413-1421,1996).
Rat brain synaptosomes were prepared as follows: Female Sprague Dawley rats (100-200 g) were killed by decapitation after anesthesia with 70% CO2. Brains are dissected, and hippocampus, striatum, and thalamus isolated, and homogenized in 0.32 M sucrose containing 5 mM HEPES pH 7.4 using a glass/glass homogenizer. The tissue was then centrifuged for 1000×g for 10 minutes and the pellet discarded. The supernatant was centrifuged at 12000×g for 20 minutes. The resultant pellet was re-suspended in perfusion buffer (128 mM NaCl, 1.2 mM KH2PO4, 2.4 mM KCl, 3.2 mM CaCl2, 1.2 mM MgSO4, 25 mM HEPES, 1 mM Ascorbic acid, 0.01 mM pargyline HCl and 10 mM glucose pH 7.4) and centrifuged for 15 minutes at 25000×g. The final pellet was resuspended in perfusion buffer and placed in a water bath (37° C.) for 10 minutes. […] The perfusate was collected directly into scintillation vials and released radioactivity was quantified using conventional liquid scintillation techniques. Release of neurotransmitter was determined in the presence of 10 uM of various ligands and was expressed as a percentage of release obtained with a concentration of 10 uM (S)-(−)-nicotine or 300 uM TMA resulting in maximal effects.

[2] = test system: ganglia-type nicotinic acetylcholine receptors; test: Determination of interaction with ganglion receptors; assay type: cell-based; conditions: percentage of the maximal activation induced by (S)-(-)-nicotine
Experimental: as §1, with “ganglionic” for “muscle”, “ganglia-type” for “muscle-type”

Sequence of muscle-type nicotinic acetylcholine receptors (P02708 21-457): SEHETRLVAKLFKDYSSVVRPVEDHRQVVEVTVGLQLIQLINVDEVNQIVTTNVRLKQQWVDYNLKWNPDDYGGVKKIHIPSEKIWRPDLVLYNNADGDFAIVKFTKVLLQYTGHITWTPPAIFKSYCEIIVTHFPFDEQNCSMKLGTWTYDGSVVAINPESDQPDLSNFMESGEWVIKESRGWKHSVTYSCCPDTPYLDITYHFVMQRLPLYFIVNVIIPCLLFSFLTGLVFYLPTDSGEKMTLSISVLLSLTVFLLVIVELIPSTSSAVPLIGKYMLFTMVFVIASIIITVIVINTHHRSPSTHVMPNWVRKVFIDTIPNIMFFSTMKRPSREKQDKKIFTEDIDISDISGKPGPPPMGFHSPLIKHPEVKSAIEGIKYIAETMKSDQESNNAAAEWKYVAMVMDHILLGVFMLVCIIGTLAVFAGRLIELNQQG
Sequence of muscle-type nicotinic acetylcholine receptors (P11230 24-501 partner): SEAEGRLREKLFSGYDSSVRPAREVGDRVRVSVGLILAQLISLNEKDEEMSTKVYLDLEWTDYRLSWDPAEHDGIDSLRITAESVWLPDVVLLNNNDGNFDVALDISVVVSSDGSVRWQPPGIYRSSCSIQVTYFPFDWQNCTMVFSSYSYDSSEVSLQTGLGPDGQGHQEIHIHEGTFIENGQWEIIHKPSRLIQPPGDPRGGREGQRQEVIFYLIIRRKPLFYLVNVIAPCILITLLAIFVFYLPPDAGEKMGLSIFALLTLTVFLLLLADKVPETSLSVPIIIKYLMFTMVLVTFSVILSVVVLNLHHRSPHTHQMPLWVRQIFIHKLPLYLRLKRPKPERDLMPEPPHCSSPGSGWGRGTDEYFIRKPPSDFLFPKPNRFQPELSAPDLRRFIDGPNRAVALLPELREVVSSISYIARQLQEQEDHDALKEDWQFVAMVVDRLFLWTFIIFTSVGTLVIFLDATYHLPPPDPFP
Sequence of muscle-type nicotinic acetylcholine receptors (Q07001 22-517): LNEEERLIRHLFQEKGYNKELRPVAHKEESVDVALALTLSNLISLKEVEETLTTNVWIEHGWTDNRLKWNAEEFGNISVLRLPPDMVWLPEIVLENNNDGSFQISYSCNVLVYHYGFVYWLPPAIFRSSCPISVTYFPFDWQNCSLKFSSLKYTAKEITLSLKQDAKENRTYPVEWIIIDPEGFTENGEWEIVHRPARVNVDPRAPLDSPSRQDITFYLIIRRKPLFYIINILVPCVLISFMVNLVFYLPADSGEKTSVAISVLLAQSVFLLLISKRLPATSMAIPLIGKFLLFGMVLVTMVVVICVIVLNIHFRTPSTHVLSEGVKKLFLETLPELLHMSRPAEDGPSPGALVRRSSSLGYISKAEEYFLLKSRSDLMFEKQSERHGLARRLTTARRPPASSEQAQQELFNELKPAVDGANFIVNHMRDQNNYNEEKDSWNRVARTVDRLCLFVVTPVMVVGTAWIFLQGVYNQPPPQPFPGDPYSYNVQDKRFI
Sequence of muscle-type nicotinic acetylcholine receptors (P07510 23-517): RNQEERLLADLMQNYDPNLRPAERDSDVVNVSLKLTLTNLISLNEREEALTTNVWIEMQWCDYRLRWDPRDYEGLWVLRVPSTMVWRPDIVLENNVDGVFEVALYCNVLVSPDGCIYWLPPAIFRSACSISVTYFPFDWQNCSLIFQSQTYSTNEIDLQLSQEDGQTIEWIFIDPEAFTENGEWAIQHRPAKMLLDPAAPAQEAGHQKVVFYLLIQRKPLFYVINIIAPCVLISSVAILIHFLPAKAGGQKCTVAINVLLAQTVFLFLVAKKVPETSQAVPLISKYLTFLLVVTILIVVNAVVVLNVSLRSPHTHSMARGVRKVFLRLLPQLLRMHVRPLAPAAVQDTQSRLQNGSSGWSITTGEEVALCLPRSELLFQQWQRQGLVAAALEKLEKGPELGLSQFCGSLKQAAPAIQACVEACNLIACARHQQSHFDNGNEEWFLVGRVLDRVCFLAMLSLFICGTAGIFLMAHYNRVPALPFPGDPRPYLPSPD

c1cncc(CC2CC3CCC2N3)c1 (stereo not drawn) [Example 1, 2-((3-pyridyl)methyl)-7-azabicyclo[2.2.1]heptane]
Emax [1]: 52%
Emax, neurotransmitter release (Rat brain synaptosomes): 15%
Emax, maximal activation at ganglia-type receptors [2]: 48%
